The supplement of paper PMC13380429

Experiments:
[1] = tested on: A549-ACE2; assay: phospholipidosis EC50; higher = less potent phospholipidosis inducer
[2] = tested on: A549-ACE2 infected with SARS-CoV-2; assay: morphology score (similarity to uninfected cells); higher = more like uninfected cells; details: 24 h
[3] = tested on: Calu-3; assay: relative viability EC50 (midpoint between 100% and the lowest measured viability); higher = less toxic; details: 72 h
[4] = tested on: Caco-2; assay: as above; details: 72 h
[5] = tested on: U2OS; assay: as above; details: 72 h
[6] = tested on: Vero E6; assay: as above; details: 72 h
[7] = tested on: HepG2; assay: as above; details: 72 h
[8] = tested on: A549-ACE2 infected with SARS-CoV-2; assay: SARS-CoV-2 infection rate relative to DMSO; higher = more infection; details: 24 h
[9] = tested on: Calu-3; assay: cell viability relative to DMSO; higher = less toxic; details: 72 h
[10] = tested on: Caco-2; assay: as above; details: 72 h
[11] = tested on: U2OS; assay: as above; details: 72 h
[12] = tested on: Vero E6; assay: as above; details: 72 h
[13] = tested on: HepG2; assay: as above; details: 72 h
[14] = tested on: Calu-3; assay: drug sensitivity score (DSS) for viability; higher = more toxic; extreme values may be limits of the assay; details: 72 h
[15] = tested on: Caco-2; assay: as above; details: 72 h
[16] = tested on: U2OS; assay: as above; details: 72 h
[17] = tested on: Vero E6; assay: as above; details: 72 h
[18] = tested on: HepG2; assay: as above; details: 72 h
[19] = tested on: A549-ACE2 infected with SARS-CoV-2; assay: cell count relative to DMSO; higher = less toxic; details: 24 h
[20] = tested on: A549-ACE2; assay: drug-induced phospholipidosis relative to tamoxifen; higher = more phospholipidosis

c1cncc(CN2CCC(n3ncc4c(N5CCOCC5)nc(-c5ccc6[nH]ccc6c5)nc43)CC2)c1 [WAY-600]
Details	SARS-CoV-2 infection rate [%]	cell count [%]	cell viability [%]	morphology score	phospholipidosis EC50 [nM]
[1], 24 h	–	–	–	–	650
[2], 0.1 µM	–	–	–	0.01	–
[2], 0.3 µM	–	–	–	0.46	–
[2], 1 µM	–	–	–	0.61	–
[2], 3 µM	–	–	–	0.33	–
[8], 0.1 µM	103	–	–	–	–
[8], 0.3 µM	81	–	–	–	–
[8], 1 µM	56	–	–	–	–
[8], 3 µM	35	–	–	–	–
[9], 1 nM	–	–	101	–	–
[9], 10 nM	–	–	94.9	–	–
[9], 100 nM	–	–	95	–	–
[9], 1000 nM	–	–	64.8	–	–
[9], 10000 nM	–	–	27.3	–	–
[10], 1 nM	–	–	96.4	–	–
[10], 10 nM	–	–	95.9	–	–
[10], 100 nM	–	–	102	–	–
[10], 1000 nM	–	–	70.3	–	–
[10], 10000 nM	–	–	24.7	–	–
[11], 1 nM	–	–	102	–	–
[11], 10 nM	–	–	98.1	–	–
[11], 100 nM	–	–	97.8	–	–
[11], 1000 nM	–	–	89.5	–	–
[11], 10000 nM	–	–	23	–	–
[12], 1 nM	–	–	103	–	–
[12], 10 nM	–	–	104	–	–
[12], 100 nM	–	–	99.4	–	–
[12], 1000 nM	–	–	82.2	–	–
[12], 10000 nM	–	–	25.2	–	–
[13], 1 nM	–	–	106	–	–
[13], 10 nM	–	–	112	–	–
[13], 100 nM	–	–	98.5	–	–
[13], 1000 nM	–	–	72.2	–	–
[13], 10000 nM	–	–	2.5	–	–
[19], 0.1 µM	–	102	–	–	–
[19], 0.3 µM	–	101	–	–	–
[19], 1 µM	–	108	–	–	–
[19], 3 µM	–	107	–	–	–

Details	drug sensitivity score	relative viability EC50 [nM]
[3]	–	1010
[4]	–	1190
[5]	–	2070
[6]	–	1590
[7]	–	1440
[14]	8.1	–
[15]	8.2	–
[16]	6	–
[17]	6.9	–
[18]	9.5	–

drug-induced phospholipidosis [%], [20]
Details	0.3 µM	0.833333 µM	3.33333 µM	6.66667 µM	10 µM	30 µM
24 h	18.3	55	79.8	55	39.9	10.3
48 h	16.7	40.1	86.2	–	–	–
72 h	17.1	29.6	–	–	–	–

CN1CCC(CNc2ccc3ncc(-c4cccc(OC(F)(F)F)c4)n3n2)CC1 [SGI-1776]
Details	SARS-CoV-2 infection rate [%]	cell count [%]	cell viability [%]	morphology score	phospholipidosis EC50 [nM]
[1], 24 h	–	–	–	–	5980
[1], 48 h	–	–	–	–	11800
[1], 72 h	–	–	–	–	7830
[2], 0.1 µM	–	–	–	0.31	–
[2], 0.3 µM	–	–	–	-0.09	–
[2], 1 µM	–	–	–	0.43	–
[2], 3 µM	–	–	–	0.76	–
[8], 0.1 µM	94	–	–	–	–
[8], 0.3 µM	106	–	–	–	–
[8], 1 µM	84	–	–	–	–
[8], 3 µM	48	–	–	–	–
[9], 1 nM	–	–	95.2	–	–
[9], 10 nM	–	–	88.7	–	–
[9], 100 nM	–	–	97.4	–	–
[9], 1000 nM	–	–	92.8	–	–
[9], 10000 nM	–	–	46.2	–	–
[10], 1 nM	–	–	102	–	–
[10], 10 nM	–	–	98.7	–	–
[10], 100 nM	–	–	101	–	–
[10], 1000 nM	–	–	88.2	–	–
[10], 10000 nM	–	–	58.6	–	–
[11], 1 nM	–	–	102	–	–
[11], 10 nM	–	–	95.4	–	–
[11], 100 nM	–	–	100	–	–
[11], 1000 nM	–	–	92.1	–	–
[11], 10000 nM	–	–	52	–	–
[12], 1 nM	–	–	104	–	–
[12], 10 nM	–	–	104	–	–
[12], 100 nM	–	–	99.5	–	–
[12], 1000 nM	–	–	97	–	–
[12], 10000 nM	–	–	55	–	–
[13], 1 nM	–	–	101	–	–
[13], 10 nM	–	–	95.1	–	–
[13], 100 nM	–	–	98.7	–	–
[13], 1000 nM	–	–	99.9	–	–
[13], 10000 nM	–	–	37.7	–	–
[19], 0.1 µM	–	105	–	–	–
[19], 0.3 µM	–	95	–	–	–
[19], 1 µM	–	106	–	–	–
[19], 3 µM	–	113	–	–	–

Details	drug sensitivity score	relative viability EC50 [nM]
[3]	–	2090
[7]	–	3150
[14]	4.1	–
[15]	3.9	–
[16]	3.8	–
[17]	2.8	–
[18]	3.4	–

drug-induced phospholipidosis [%], [20]
Details	0.3 µM	0.833333 µM	3.33333 µM	6.66667 µM	10 µM	30 µM
24 h	8.28	2.67	25.6	59.2	81	100
48 h	2.75	0.46	18.4	53.2	85.9	–
72 h	3.7	-1.53	13.6	50.1	79.6	–

Nc1nc(O)c2[nH]nnc2n1 [azaguanine-8]
Details	SARS-CoV-2 infection rate, [8] [%]	cell count, [19] [%]	cell viability, [9] [%]	cell viability, [10] [%]	cell viability, [11] [%]	cell viability, [12] [%]	cell viability, [13] [%]	morphology score, [2]
1 nM	–	–	94.4	104	102	104	102	–
10 nM	–	–	94	105	95.4	103	100	–
0.1 µM	106	102	–	–	–	–	–	0.12
100 nM	–	–	89.5	93.5	102	105	100	–
0.3 µM	91	104	–	–	–	–	–	0.27
1 µM	96	102	–	–	–	–	–	0.08
1000 nM	–	–	89.5	91.9	97.6	103	106	–
3 µM	94	102	–	–	–	–	–	0.33
10000 nM	–	–	81.2	91.1	89.2	52	29.6	–

Details	drug sensitivity score	relative viability EC50 [nM]
[3]	–	> 10000
[4]	–	> 10000
[5]	–	> 10000
[7]	–	3600
[14]	1.4	–
[15]	0	–
[16]	0.1	–
[17]	2.3	–
[18]	3.4	–

drug-induced phospholipidosis [%], [20]
Details	0.3 µM	0.833333 µM	3.33333 µM	6.66667 µM	10 µM	30 µM
24 h	2.81	-0.65	-1.26	-0.07	3.53	16.6
48 h	3.95	-1.52	-4.45	-3.51	-4.77	–
72 h	5.19	-2.08	-1.89	-4.08	-4.93	–
